This note sets out measurements from patent US10640495B2, “Heterocycle derivatives having TrkA inhibitory activity” (Shionogi & Co., Ltd., priority 2015, dated 2020).

Structures are written as SMILES.

Chain of human TrkA (P04629 440-796): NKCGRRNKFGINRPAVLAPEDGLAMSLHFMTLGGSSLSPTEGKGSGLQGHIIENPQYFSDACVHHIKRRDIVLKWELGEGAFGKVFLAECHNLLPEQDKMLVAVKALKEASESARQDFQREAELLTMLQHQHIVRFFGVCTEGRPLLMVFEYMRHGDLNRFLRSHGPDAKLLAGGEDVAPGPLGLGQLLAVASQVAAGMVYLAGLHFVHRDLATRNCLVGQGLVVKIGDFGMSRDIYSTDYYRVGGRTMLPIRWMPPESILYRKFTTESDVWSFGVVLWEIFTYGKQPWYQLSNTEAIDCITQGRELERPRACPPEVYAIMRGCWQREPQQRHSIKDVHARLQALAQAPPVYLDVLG

The target in one assay is human TrkA (Homo sapiens (Human), UniProt P04629). Briefly: Human TrkA inhibition assay (Test Example 2). The format is biochemical. The settings on record: Table 153, human TrkA inhibition; read-out: IC50. The procedure:
Seven point five μL per well of human TrkA (PV3144, Lifetechnologies, final concentration: 1 nmol/L) suspended in the assay buffer (100 mmol/L 4-(2-hydroxyethyl)-1-piperazineethanesulfonic acid (HEPES), 10 mmol/L magnecium chloride, 0.003 vol % Brij-35, 0.004 vol % Tween20 and 1 mmol/L dithiothreitol (DTT)) was applied in a 384 well plate and the plate was pre-incubated for 15 min at room temperature with 0.4 μL of each compound (final concentration: 200 μmol/L-1 pmol/L) dissolved in DMSO. Then, fluorescent substrate (FL-peptide 27, 760424, PerkinElmer, final concentration: 1.5 μmol/L) and ATP (final concentration 500 μmol/L) dissolved in the assay buffer was added in each well. After the incubation of 120 min at 37° C., fifteen μL of termination buffer (100 mmol/L HEPES, 40 mmol/L ethylenediaminetetraacetic acid (EDTA), 10 mmol/L magnecium chloride, 0.003 vol % Brij-35, 0.004 vol % Tween20, 1 mmol/L DTT and 0.16 vol % Coating Reagent 3) was added in each well to stop the enzyme reaction. Fluorescent intensities (FI) of phosphorylated and non-phosphorylated fluorescent substrates were measured by LabChip EZReader II (Caliper LifeSciences, Inc.), and conversion ratio (CR) was calculated by the following formula-1. The CR in the well applied with DMSO alone was used as a negative control and the CR in the well without applying TrkA was used as a positive control. The inhibitory effect of each compound on TrkA phosphorylation was calculated by the following formula-2. CR (%)=(FI of phosphorylated substrate/(FI of phosphorylated substrate+FI of non-phosphorylated substrate))×100 (Formula-1) Phosphorylation inhibition (%)=(1−(CR with compound treatment−CR of positive control)/(CR of negative control−CR of positive control))×100 (Formula-2)
IC50 values (nmol/L) were determined by the logistic regression using the inhibition data in 10 points of 3-fold dilution series at a compound concentration range of 20 nmol/L to 1 pmol/L, or 10 points of 3-fold dilution series at the range of 2 μmol/L to 0.1 nmol/L, or 10 points of 3-fold dilution series at the range of 200 μmol/L to 10 nmol/L, or 15 points of 3-fold dilution series at the range of 200 μmol/L to 0.04 nmol/L.
The evaluation results of the compounds in the present invention are indicated as follows. IC50 values of 0 to 100 nM, 100 to 1000 nM and over 1000 nM were shown as “A”, “B” and “C”, respectively.
Regarding `CCNC(=O)c1cc(-c2nn(-c3ccccc3)c(NC(=O)N[C@@H]3CN(CCOC)O[C@H]3c3ccnc(F)c3)c2C)cnc1OC` (racemic) [Compound I-110], the IC50 (as a rule, the midpoint of a concentration-inhibition curve) was under 100 nM. For `COCCN1C[C@@H](NC(=O)Nc2c(C)c(-c3cnc(OC)c(C(=O)NC4CCOCC4)c3)nn2-c2ccccc2)[C@H](c2ccnc(F)c2)O1` (racemic) [Compound I-111], the 50% inhibitory concentration (IC50) is under 100 nM. Consider `COCCN1C[C@@H](NC(=O)Nc2c(C)c(-c3cnc(OC)c(C(=O)NC4CCS(=O)(=O)CC4)c3)nn2-c2ccccc2)[C@H](c2ccnc(F)c2)O1` (racemic) [Compound I-112], for which the IC50 was under 100 nM.

Take `COCCN1C[C@@H](NC(=O)Nc2c(C)c(-c3cnc4c(c3)c(C)nn4C)nn2-c2ccccc2)[C@H](c2ccnc(F)c2)O1` (racemic) [Compound I-114]: the half-inhibitory concentration (IC50) is under 100 nM. On the same count and under the same terms, the same measure for `COCCN1C[C@@H](NC(=O)Nc2c(C)c(-c3cnc(C4CC4)nc3)nn2-c2ccccc2)[C@H](c2ccnc(F)c2)O1` (racemic) [Compound I-115]: under 100 nM. Turning to `COCCN1C[C@@H](NC(=O)Nc2c(C)c(-c3cnn(C)c3)nn2-c2ccccc2)[C@H](c2ccc(F)cc2)O1` (racemic) [Compound I-116], the IC50 was under 100 nM. The same measure, in the same setting: next, `COCCN1C[C@@H](NC(=O)Nc2c(C)c(-c3cnc(C)nc3)nn2-c2ccccc2)[C@H](c2ccc(F)cc2)O1` (racemic) [Compound I-117]: under 100 nM; `COCCN1C[C@@H](NC(=O)Nc2c(C)c(-c3cnc4c(c3)nnn4C)nn2-c2ccccc2)[C@H](c2ccc(F)cc2)O1` (racemic) [Compound I-118]: under 100 nM; `COCCN1C[C@@H](NC(=O)Nc2c(C)c(-c3cnc(N(C(=O)OC(C)(C)C)C4CC4)nc3)nn2-c2ccccc2)[C@H](c2ccnc(F)c2)O1` (racemic) [Compound I-120]: under 100 nM. With `COCCN1C[C@@H](NC(=O)Nc2c(C)c(-c3cnc4c(c3)oc(=O)n4C)nn2-c2ccccc2)[C@H](c2cnc(F)c(F)c2)O1` (racemic) [Compound I-123], the IC50 is under 100 nM. Consider `COCCN1C[C@@H](NC(=O)Nc2c(C)c(-c3cc(COC(C)=O)c(=O)n(C)c3)nn2-c2ccccc2)[C@H](c2ccc(F)c(F)c2)O1` (racemic) [Compound I-124], for which the IC50 was under 100 nM. Regarding `COCCN1C[C@@H](NC(=O)Nc2c(C)c(-c3cc(CO)c(=O)n(C)c3)nn2-c2ccccc2)[C@H](c2ccc(F)c(F)c2)O1` (racemic) [Compound I-125], the IC50 was under 100 nM. As to `COCCN1C[C@@H](NC(=O)Nc2c(C)c(-c3cnc4c(c3)nnn4C)nn2-c2ccccc2)[C@H](c2ccc(F)c(F)c2)O1` (racemic) [Compound I-126], the half-inhibitory concentration (IC50) was under 100 nM.

Take `COCCN1C[C@@H](NC(=O)Nc2c(C)c(-c3cnc4c(c3)nnn4C)nn2-c2ccccc2)[C@H](c2cnc(F)c(F)c2)O1` (racemic) [Compound I-127]: the half-inhibitory concentration (IC50) is under 100 nM. As for `COCCN1C[C@@H](NC(=O)Nc2c(C)c(-c3ccc(C#N)nc3)nn2-c2ccccc2)[C@H](c2ccc(F)c(F)c2)O1` (racemic) [Compound I-129], the IC50 is under 100 nM.

Turning to `COCCN1C[C@@H](NC(=O)Nc2c(C)c(-c3cnc(NC4CC4)nc3)nn2-c2ccccc2)[C@H](c2ccnc(F)c2)O1` (racemic) [Compound I-131], the half-maximal inhibitory concentration (IC50) is under 100 nM. For the molecule `COCCN1C[C@@H](NC(=O)Nc2c(C)c(-c3cnc(N(C)C)nc3)nn2-c2ccccc2)[C@H](c2ccnc(F)c2)O1` (racemic) [Compound I-132], the IC50 was under 100 nM. As for `COCCN1C[C@@H](NC(=O)Nc2c(C)c(-c3cnc4nccnc4c3)nn2-c2ccccc2)[C@H](c2ccc(F)c(F)c2)O1` (racemic) [Compound I-134], the concentration for half-maximal inhibition (IC50) was under 100 nM. Turning to `COCCN1C[C@@H](NC(=O)Nc2c(C)c(-c3cnn(C)c3)nn2-c2ccccc2)[C@H](c2cnc(Cl)s2)O1` (racemic) [Compound I-137], the concentration for half-maximal inhibition (IC50) is under 100 nM.

As for `CNC(=O)c1cc(-c2nn(-c3ccccc3)c(NC(=O)N[C@@H]3CN(CCOC)O[C@H]3c3ccc(F)cc3)c2C)cn(C)c1=O` (racemic) [Compound I-138], the IC50 was under 100 nM. With `COCCN1C[C@@H](NC(=O)Nc2c(C)c(-c3cnn(C)c3)nn2-c2ccccc2)[C@H](c2cccc(F)c2)O1` (racemic) [Compound I-139], the IC50 is under 100 nM.

With `COCCN1C[C@@H](NC(=O)Nc2c(C)c(-c3cnc(C)nc3)nn2-c2ccccc2)[C@H](c2cccc(F)c2)O1` (racemic) [Compound I-140], the IC50 is under 100 nM. On to `COCCN1C[C@@H](NC(=O)Nc2c(C)c(-c3cnc4c(c3)ncn4C)nn2-c2ccccc2)[C@H](c2cccc(F)c2)O1` (racemic) [Compound I-141], for which the 50% inhibitory concentration (IC50) was under 100 nM. Consider `COCCN1C[C@@H](NC(=O)Nc2c(C)c(-c3cnc4c(c3)nnn4C)nn2-c2ccccc2)[C@H](c2cccc(F)c2)O1` (racemic) [Compound I-142], for which the IC50 was under 100 nM. In the case of `CNC(=O)c1cc(-c2nn(-c3ccccc3)c(NC(=O)N[C@@H]3CN(CCOC)O[C@H]3c3cccc(F)c3)c2C)cn(C)c1=O` (racemic) [Compound I-143], the 50% inhibitory concentration (IC50) is under 100 nM.

With `COCCN1C[C@@H](NC(=O)Nc2c(C)c(-c3cnc(N4CC(O)C4)nc3)nn2-c2ccccc2)[C@H](c2ccnc(F)c2)O1` (racemic) [Compound I-144], the concentration for half-maximal inhibition (IC50) was under 100 nM. For `CNC(=O)c1cc(-c2nn(-c3ccccc3)c(NC(=O)N[C@@H]3CN(CCOC)O[C@H]3c3ccc(F)c(F)c3)c2C)cn(C)c1=O` (racemic) [Compound I-147], the IC50 was under 100 nM.

As for `CCN1C[C@@H](NC(=O)Nc2c(C)c(-c3cc(C(=O)NC)c(=O)n(C)c3)nn2-c2ccccc2)[C@H](c2ccc(F)c(F)c2)O1` (racemic) [Compound I-148], the half-maximal inhibitory concentration (IC50) is under 100 nM. Consider `CNC(=O)c1cc(-c2nn(-c3ccccc3)c(NC(=O)N[C@@H]3CN(Cc4ccco4)O[C@H]3c3ccc(F)c(F)c3)c2C)cn(C)c1=O` (racemic) [Compound I-149], for which the IC50 was under 100 nM.

For `CNC(=O)c1cc(-c2nn(-c3ccccc3)c(NC(=O)N[C@@H]3CN(Cc4ccc(C#N)o4)O[C@H]3c3ccc(F)c(F)c3)c2C)cn(C)c1=O` (racemic) [Compound I-150], the IC50 was under 100 nM.

Consider `CNC(=O)c1cc(-c2nn(-c3ccccc3)c(NC(=O)N[C@@H]3CN(Cc4csnn4)O[C@H]3c3ccc(F)c(F)c3)c2C)cn(C)c1=O` (racemic) [Compound I-151], for which the IC50 is under 100 nM. The same measure, in the same setting: the same measure for `COCCN1C[C@@H](NC(=O)Nc2c(C)c(-c3cnc4cccnc4c3)nn2-c2ccccc2)[C@H](c2ccc(F)c(F)c2)O1` (racemic) [Compound I-152]: under 100 nM. For `COCCN1C[C@@H](NC(=O)Nc2c(C)c(C3=CCN(c4ncc(Cl)cn4)CC3)nn2-c2ccccc2)[C@H](c2ccc(F)c(F)c2)O1` (racemic) [Compound I-153], the IC50 is under 100 nM. In the case of `COCCN1C[C@@H](NC(=O)Nc2c(C)c(-c3cnc(C)nc3)nn2-c2ccccc2)[C@H](c2cnc(Cl)s2)O1` (racemic) [Compound I-154], the IC50 was under 100 nM.

Regarding `COCCN1C[C@@H](NC(=O)Nc2c(C)c(-c3ccn4c(C)nnc4c3)nn2-c2ccccc2)[C@H](c2ccnc(F)c2)O1` (racemic) [Compound I-155], the IC50 was under 100 nM. For the molecule `COCCN1C[C@@H](NC(=O)Nc2c(C)c(-c3ccn4nc(C)nc4c3)nn2-c2ccccc2)[C@H](c2ccnc(F)c2)O1` (racemic) [Compound I-156], the half-inhibitory concentration (IC50) was under 100 nM.

The assay is the same for the next values; noted with them: human TrkA 1 nmol/L, ATP 500 μmol/L, 120 min at 37° C.; read-out: IC50 values (TrkA phosphorylation inhibition).
Take `COCCN1C[C@@H](NC(=O)Nc2c(C)c(-c3cnc(OC)nc3)nn2-c2ccccc2)[C@H](c2ccnc(F)c2)O1` (racemic) [Compound I-119]: the half-maximal inhibitory concentration (IC50) came to 4 nM. Regarding `COCCN1C[C@@H](NC(=O)Nc2c(C)c(-c3cnc4c(c3)oc(=O)n4C)nn2-c2ccccc2)[C@H](c2ccnc(F)c2)O1` (racemic) [Compound I-122], the 50% inhibitory concentration (IC50) was determined as 2.7 nM. The same measure, in the same setting: next, `COCCN1C[C@@H](c2ccnc(F)c2)[C@H](NC(=O)Nc2c(C)c(-c3cnn(C)c3)nn2-c2ccccc2)O1` (racemic) [Compound I-136]: 30 nM.

As to `COCCN1C[C@@H](NC(=O)Nc2c(C)c(-c3ccc(-c4nn[nH]n4)nc3)nn2-c2ccccc2)[C@H](c2ccc(F)c(F)c2)O1` (racemic) [Compound I-145], the IC50 was 0.87 nM. Regarding `COCCN1C[C@@H](NC(=O)Nc2c(C)c(-c3cnn(C)c3)nn2C2CCC2)[C@H](c2ccc(F)c(F)c2)O1` (racemic) [Compound I-146], the half-inhibitory concentration (IC50) amounted to 330 nM.
